Marks after values point to notes of the source that are not given here.
Test system: apoptotic sunburn cells in the epidermis of SKH-1 mice
Experiment: UVB-induced apoptotic sunburn cells in the epidermis of SKH-1 mice after topical application
Format: in vivo, mouse
Details: for activity in stimulating UVB-induced apoptosis in mouse skin, compared with caffeine: first study of compounds structurally related to caffeine, given after UVB; for Percent Apoptotic Sunburn Cells: 6.2 μmole in 100 μL acetone right after UVB 30 mJ/cm^2 and at 30 and 120 min, 6 h after UVB; for activity in stimulating UVB-induced apoptosis, compared with caffeine: similar study, acetone:water (90:10) as vehicle (Table 1)
Description: Chemicals and Animals. […] Female SKH-1 hairless mice (6 to 7 weeks old) were purchased from the Charles River Breeding Laboratories, and the animals were kept in an animal facility for at least one week before use at 7 to 8 weeks of age. Mice were given water and PURINA® Laboratory CHOW® 5001 diet from Ralston-Purina (St. […] For the analysis conducted herein, 5 mice were used per group. Treatment of Mice with UVB. […] The radiation was further calibrated with a model IL-1700 research radiometer/photometer (International Light, Newburyport, Mass.). Measurement of apoptotic sunburn cells. Identification of apoptoic sunburn cells was based morphologically on cell shrinkage and nuclear condensation due to fragmentation of the cells. […] Six hours after UVB, the animals were sacrificed and apoptotic sunburn cells in the epidermis were determined morphologically. […] Six hours after UVB, the animals were sacrificed and apoptotic sunburn cells in the epidermis were determined morphologically. […] Acetone Formulation. […] Six hours after UVB, the animals were sacrificed and apoptotic sunburn cells in the epidermis were determined morphologically. […] […] Formulations. […] Six hours after UVB the animals were sacrificed and apoptotic sunburn cells in the epidermis were determined morphologically. […] Six hours after UVB the animals were sacrificed and apoptotic sunburn cells in the epidermis were determined morphologically.

[1] = Table 1, vs acetone group, 6.2 μmole x3 after UVB 30 mJ/cm^2, 6 h

Structure (SMILES) | activity in stimulating UVB-induced apoptosis in mouse skin, compared with caffeine | Percent Apoptotic Sunburn Cells (mean ± S.E.) | % Induction [1] [%] | activity in stimulating UVB-induced apoptosis, compared with caffeine | also measured
Cn1c(=O)c2ncn(C)c2n(C)c1=O [1,3,9-trimethylxanthine] | somewhat less active than caffeine | – | – | – | –
Cn1c(=O)[nH]c2ncn(C)c2c1=O [1,7-dimethylxanthine] | as active as caffeine | – | – | – | –
Cn1c(=O)c2c(nc(Br)n2C)n(C)c1=O [8-bromocaffeine] | little or no activity | – | – | – | –
Cn1c(=O)c2c(nc(Cl)n2C)n(C)c1=O [8-chlorocaffeine] | little or no activity | – | – | – | –
Cn1c(=O)c2c(ncn2C)n(C)c1=O [Caffeine Citrated, citrated caffeine] | – | 0.757 ± 0.199^b % | 271 | – | –
CC(=O)CCCCn1c(=O)c2c(ncn2C)n(C)c1=O [Pentoxifylline, pentoxifylline] | little or no activity | 0.318 ± 0.068^ % | 56 | about half as active as caffeine | –
O=C([O-])c1ccccc1.[Na+] [Sodium benzoate, sodium benzoate] | – | – | – | – | Percent Sunburn Cells, UVB (6.2 μmole (each) in 100 μL acetone:water (9:1) immediately after UVB 30 mJ/cm^2 and at 30 and 120 min, 6 h, mean ± S.E.): 0.27 ± 0.08%; enhancement of UVB-induced apoptosis in the epidermis, applied in DERMABASE (DERMABASE vehicle, equimolar amounts (Table 4)): inactive; % Induction (Table 2, vs acetone, 6.2 μmole in acetone:water (9:1)): 29%
Cn1cnc2c1c(=O)[nH]c(=O)n2C [Theobromine, 3,7-dimethylxanthine] | little or no activity | 0.358 ± 0.064^ % | 75 | about half as active as caffeine | –
Cn1c(=O)c2[nH]cnc2n(C)c1=O [Theophylline, 1,3-dimethylxanthine] | as active as caffeine | 0.703 ± 0.171^b % | 245 | somewhat more active than caffeine | –
O=c1[nH]c(=O)c2[nH]cnc2[nH]1 [Xanthine, xanthine] | little or no activity | 0.221 ± 0.046^ % | 8 | – | –

Reference: patent publication US8029770B2 (Rutgers, The State University, priority 2003, dated 2011)
